Results: PubChem BioAssay AID1963845 (Molecular Pharmacology Branch, DTP, NCI, 2024)

Tested on: 429239-143-T-J1-PDC complex spheroid viability
Assay: Anticancer human tumor 429239-143-T-J1-PDC patient-derived small cell lung carcinoma cell line growth inhibition [POLQ]
Settings: for IC50: curve of first compound; for viability, T/C: stronger effect = lower value
Outline: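 Growth inhibition in 3D: complex spheroids (tumor PDC, HUVEC, MSC) treated with POLQ inhibitor combinations; where Cmax unknown, highest tested concentration 10 microM, except SN-38 at 1 microM.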

[1] = second compound 0.0316 µM, first compound 0.0316 µM
[2] = second compound 0.0316 µM, first compound 0.1 µM
[3] = second compound 0.0316 µM, first compound 0.316 µM
[4] = second compound 0.0316 µM, first compound 1 µM
[5] = second compound 0.0316 µM, first compound 3.16 µM
[6] = second compound 0.0316 µM, first compound 10 µM
[7] = second compound 0.1 µM, first compound 0.0316 µM
[8] = second compound 0.1 µM, first compound 0.1 µM
[9] = second compound 0.1 µM, first compound 0.316 µM
[10] = second compound 0.1 µM, first compound 1 µM
[11] = second compound 0.1 µM, first compound 3.16 µM
[12] = second compound 0.1 µM, first compound 10 µM
[13] = second compound 0.316 µM, first compound 0.0316 µM
[14] = second compound 0.316 µM, first compound 0.1 µM
[15] = second compound 0.316 µM, first compound 0.316 µM
[16] = second compound 0.316 µM, first compound 1 µM
[17] = second compound 0.316 µM, first compound 3.16 µM
[18] = second compound 0.316 µM, first compound 10 µM
[19] = second compound 1 µM, first compound 0.0316 µM
[20] = second compound 1 µM, first compound 0.1 µM
[21] = second compound 1 µM, first compound 0.316 µM
[22] = second compound 1 µM, first compound 1 µM
[23] = second compound 1 µM, first compound 3.16 µM
[24] = second compound 1 µM, first compound 10 µM
[25] = second compound 3.16 µM, first compound 0.0316 µM
[26] = second compound 3.16 µM, first compound 0.1 µM
[27] = second compound 3.16 µM, first compound 0.316 µM
[28] = second compound 3.16 µM, first compound 1 µM
[29] = second compound 3.16 µM, first compound 3.16 µM
[30] = second compound 3.16 µM, first compound 10 µM
[31] = second compound 10 µM, first compound 0.0316 µM
[32] = second compound 10 µM, first compound 0.1 µM
[33] = second compound 10 µM, first compound 0.316 µM
[34] = second compound 10 µM, first compound 1 µM
[35] = second compound 10 µM, first compound 3.16 µM
[36] = second compound 10 µM, first compound 10 µM
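Further: luminescence signal used as surrogate measure of viable cells; spheroids exposed to compounds for seven days before readout.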
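Wherever viability, T/C is given: 100% = DMSO vehicle control viability as luminescence relative to vehicle.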

Work on CNCc1ccc(-c2[nH]c3cc(F)cc4c3c2CCNC4=O)cc1 + Nc1ccc(C#CCN(C(=O)Cc2ncc(C(F)(F)F)cc2C(F)(F)F)c2ccc(F)cc2)nn1 yielded an IC50 (second compound 0.0316 µM) of 6.53 µM, an IC50 (second compound 0.1 µM) of 6.07 µM and an IC50 (second compound 0.316 µM) of 6.32 µM. The IC50 (second compound 1 µM) was 5.54 µM, the IC50 (second compound 3.16 µM) was 6.09 µM and the IC50 (second compound 10 µM) was 5.96 µM. For the same compound, the viability, T/C [1] was 98.7%, the viability, T/C [2] was 99.6% and the viability, T/C [3] was 97.7%. For the same compound, the viability, T/C [4] was 94.6%, the viability, T/C [5] was 82.4% and the viability, T/C [6] was 30.9%. For the same compound, the viability, T/C [7] was 92.7%, the viability, T/C [8] was 88.4% and the viability, T/C [9] was 90.6%. For the same compound, the viability, T/C [10] was 86.8%, the viability, T/C [11] was 80.6% and the viability, T/C [12] was 26.5%. For the same compound, the viability, T/C [13] was 97.2%, the viability, T/C [14] was 94.7% and the viability, T/C [15] was 98.5%. For the same compound, the viability, T/C [16] was 93.5%, the viability, T/C [17] was 79.4% and the viability, T/C [18] was 30.6%. The viability, T/C [19] was 106%, the viability, T/C [20] was 96.1% and the viability, T/C [21] was 86.3%. It also gave a viability, T/C [22] of 84.8%, a viability, T/C [23] of 79.3% and a viability, T/C [24] of 24%. For the same compound, the viability, T/C [25] was 104%, the viability, T/C [26] was 92.2% and the viability, T/C [27] was 94.7%. It also gave a viability, T/C [28] of 90.7%, a viability, T/C [29] of 75.1% and a viability, T/C [30] of 31.4%. For the same compound, the viability, T/C [31] was 101%, the viability, T/C [32] was 80.5% and the viability, T/C [33] was 87.6%. The viability, T/C [34] was 83%, the viability, T/C [35] was 81.8% and the viability, T/C [36] was 24.1%.

COc1cc2cc(C(=O)CCC(=O)O)sc2cc1OC + Nc1ccc(C#CCN(C(=O)Cc2ncc(C(F)(F)F)cc2C(F)(F)F)c2ccc(F)cc2)nn1 was tested, and the IC50 (second compound 0.0316 µM) was > 10 µM, the IC50 (second compound 0.1 µM) was > 10 µM and the IC50 (second compound 0.316 µM) was > 10 µM. The IC50 (second compound 1 µM) was > 10 µM, the IC50 (second compound 3.16 µM) was > 10 µM and the IC50 (second compound 10 µM) was > 10 µM. It also gave a viability, T/C [1] of 90.4%, a viability, T/C [2] of 108% and a viability, T/C [3] of 89.8%. It also gave a viability, T/C [4] of 107%, a viability, T/C [5] of 106% and a viability, T/C [6] of 119%. It also gave a viability, T/C [7] of 106%, a viability, T/C [8] of 113% and a viability, T/C [9] of 101%. For the same compound, the viability, T/C [10] was 106%, the viability, T/C [11] was 103% and the viability, T/C [12] was 97.4%. The viability, T/C [13] was 105%, the viability, T/C [14] was 109% and the viability, T/C [15] was 96.8%. It also gave a viability, T/C [16] of 117%, a viability, T/C [17] of 95.4% and a viability, T/C [18] of 101%. For the same compound, the viability, T/C [19] was 105%, the viability, T/C [20] was 106% and the viability, T/C [21] was 94.8%. The viability, T/C [22] was 97.9%, the viability, T/C [23] was 100% and the viability, T/C [24] was 105%. For the same compound, the viability, T/C [25] was 97%, the viability, T/C [26] was 107% and the viability, T/C [27] was 103%. The viability, T/C [28] was 104%, the viability, T/C [29] was 94.9% and the viability, T/C [30] was 99.8%. For the same compound, the viability, T/C [31] was 96.9%, the viability, T/C [32] was 105% and the viability, T/C [33] was 108%. For the same compound, the viability, T/C [34] was 98.2%, the viability, T/C [35] was 99.9% and the viability, T/C [36] was 98.3%.

For O=c1[nH]cc(F)c(=O)[nH]1 + Cc1cccc(N(C)C(=O)C2C(O)CCN2c2nc(C)cc(C(F)(F)F)c2C#N)c1, the IC50 (second compound 0.0316 µM) was > 10 µM, the IC50 (second compound 0.1 µM) was 6.82 µM and the IC50 (second compound 0.316 µM) was > 10 µM. The IC50 (second compound 1 µM) was 9.33 µM, the IC50 (second compound 3.16 µM) was > 10 µM and the IC50 (second compound 10 µM) was 9.51 µM. For the same compound, the viability, T/C [1] was 108%, the viability, T/C [2] was 109% and the viability, T/C [3] was 101%. It also gave a viability, T/C [4] of 105%, a viability, T/C [5] of 65.9% and a viability, T/C [6] of 54.5%. It also gave a viability, T/C [7] of 106%, a viability, T/C [8] of 92.3% and a viability, T/C [9] of 104%. The viability, T/C [10] was 91.1%, the viability, T/C [11] was 61.4% and the viability, T/C [12] was 44.4%. For the same compound, the viability, T/C [13] was 96.6%, the viability, T/C [14] was 112% and the viability, T/C [15] was 101%. It also gave a viability, T/C [16] of 104%, a viability, T/C [17] of 56.5% and a viability, T/C [18] of 50.8%. The viability, T/C [19] was 105%, the viability, T/C [20] was 110% and the viability, T/C [21] was 120%. The viability, T/C [22] was 87.8%, the viability, T/C [23] was 72.4% and the viability, T/C [24] was 47.7%. The viability, T/C [25] was 95.9%, the viability, T/C [26] was 97.2% and the viability, T/C [27] was 114%. For the same compound, the viability, T/C [28] was 78.2%, the viability, T/C [29] was 56.5% and the viability, T/C [30] was 47.6%. The viability, T/C [31] was 98.7%, the viability, T/C [32] was 93.9% and the viability, T/C [33] was 97.5%. For the same compound, the viability, T/C [34] was 83.9%, the viability, T/C [35] was 65% and the viability, T/C [36] was 49.2%.
